Values after ≈ are worked out from the molar mass of the structure shown.
Key:
[1] = Selectivity index, ratio of GI50 for human MCF7 cells to MIC for dormant Mycobacterium bovis BCG ATCC 35743; format: toxicity; conditions: pooled result: one value given for 3 cell lines, strains, targets or settings, read-out: Selectivity Index
[2] = Selectivity index, ratio of GI50 for human MCF7 cells to MIC for dormant Mycobacterium tuberculosis H37Ra ATCC 25177; format: toxicity; conditions: pooled result: one value given for 3 cell lines, strains, targets or settings, read-out: Selectivity Index
[3] = test system: Mycobacterium tuberculosis; test: Antimycobacterial activity against dormant Mycobacterium bovis BCG ATCC 35743 after 12 days by neutral red dye based two-fold dilution method; format: functional; conditions: BCG str. ATCC 35743, 288 h
[4] = test system: Mycobacterium tuberculosis; test: Antimycobacterial activity against dormant Mycobacterium tuberculosis H37Ra ATCC 25177 after 12 days by XTT dye based two-fold dilution method; format: functional; conditions: H37Ra ATCC 25177, 288 h
[5] = Cytotoxicity against human A549 cells by MTT assay; format: cell-based
[6] = Cytotoxicity against human MCF7 cells by MTT assay; format: cell-based

| Compound | selectivity ratio [1] | selectivity ratio [2] | MIC [3] [µM] | MIC [4] [µM] | GI50 [5] [µM] | GI50 [6] [µM] |
| --- | --- | --- | --- | --- | --- | --- |
| O=C(NN1C(=O)CSC1c1cc2ccccc2n2nnnc12)c1ccncc1 (centres undefined) | 588 | 18.9 | 430 (≈ 168 µg/mL) |  |  |  |
| CO[C@H]1/C=C/O[C@@]2(C)Oc3c(C)c(O)c4c(O)c(c(/C=N/N5CCN(C)CC5)c(O)c4c3C2=O)NC(=O)/C(C)=C\C=C\[C@H](C)[C@H](O)[C@@H](C)[C@@H](O)[C@@H](C)[C@H](OC(C)=O)[C@@H]1C [RIFAMPIN] | 1750 | > 5000 | 21 (≈ 17.3 µg/mL) | 24 (≈ 19.8 µg/mL) |  |  |
| COc1ccc2c(c1)cc(C1SCC(=O)N1NC(=O)c1ccncc1)c1nnnn12 (centres undefined) | 11.8 | 238 | 140 (≈ 59 µg/mL) | 990 (≈ 417 µg/mL) |  |  |
| Cc1ccc2c(c1)cc(C1SCC(=O)N1NC(=O)c1ccncc1)c1nnnn12 (centres undefined) | 29.2 | 115 | 8430 (≈ 3420 µg/mL) | 2140 (≈ 868 µg/mL) |  |  |
| Cc1ccc2cc(C3SCC(=O)N3NC(=O)c3ccncc3)c3nnnn3c2c1 (centres undefined) | 833 | 94.3 | 300 (≈ 122 µg/mL) | 2610 (≈ 1060 µg/mL) |  |  |
| Cc1cccc2cc(C3SCC(=O)N3NC(=O)c3ccncc3)c3nnnn3c12 (centres undefined) | 476 | 139 | 510 (≈ 207 µg/mL) | 1770 (≈ 718 µg/mL) |  |  |
| CC(=O)O[C@H]1C(=O)[C@@]2(C)[C@H]([C@H](OC(=O)c3ccccc3)[C@]3(O)C[C@H](OC(=O)[C@H](O)[C@@H](NC(=O)c4ccccc4)c4ccccc4)C(C)=C1C3(C)C)[C@]1(OC(C)=O)CO[C@@H]1C[C@@H]2O [PACLITAXEL] |  |  |  |  | 80 | 87 |
| COc1ccc2cc(C3SCC(=O)N3NC(=O)c3ccncc3)c3nnnn3c2c1 (centres undefined) | 667 | 143 | 360 (≈ 152 µg/mL) | 1660 (≈ 700 µg/mL) |  |  |

Reference: ChEMBL document CHEMBL3992486 (Medchemcomm, 2016)
